22 molecules from ChEMBL document CHEMBL1914447, “Novel orally active antimalarial thiazoles” (J Med Chem, 2011) can be followed below.

Converted amounts (≈) assume the structure as drawn.

For data set [1], the system named is Plasmodium falciparum. Put plainly: microbe, parasite or virus in culture. The following applies: NF54.
Data set [2] in a line: Kinetic solubility of the compound by nephelometry at pH 2.0. As to conditions: buffer, read-out: Kinetic_solubility. It counts as physicochemical.
Data set [3] is described as follows: Lipophilicity, log D of the compound by gradient HPLC at pH 7.4. In kind it is physicochemical. The following applies: buffer.
A short description of data set [4]: Lipophilicity, log D of the compound by gradient HPLC at pH 3.0. The following applies: buffer. It counts as physicochemical.
Data set [5] deals with Liver microsomes. Put plainly: Metabolic stability in human liver microsomes at 1 uM by LC-MS analysis. In kind it is ADME, Microsome. Background: Liver microsomes are a subcellular fraction often used to study metabolism.
In data set [6] the test system is Liver. The data set is described as follows: Metabolic stability in mouse liver microsomes at 1 uM by LC-MS analysis. In kind it is ADME, Microsome.
Data set [7] is described as follows: Kinetic solubility of the compound by nephelometry at pH 6.5. The following applies: buffer, read-out: Kinetic_solubility. In kind it is physicochemical.
Data set [8] relates to Plasmodium falciparum. Put plainly: microbe, parasite or virus in culture. The following applies: K1.
For data set [9], the system named is Liver microsomes. Put plainly: Metabolic stability in rat liver microsomes at 1 uM by LC-MS analysis. In kind it is ADME, Microsome.

One may read the IC50 as the concentration needed to halve the response being measured. The term chromatographic logD denotes a lipophilicity value derived from retention on a column. A high value points to a more lipophilic compound. With `CC(C)(C)c1cc(C(=O)Nc2cccnc2)n(Cc2ccccc2)n1`, the IC50 in data set [1] amounted to 4.99 µM; in data set [8], 6.45 µM. The solubility kinetic is above 100 µg/mL in [2] and 6.3 µg/mL (≈ 18.8 µM) in data set [7]. In addition, the figures for the chromatographic logD in data set [3] and in data set [4] were 3.8 and 3.5, respectively. In addition, the Stability result in data set [5], in [6] and in data set [9] was “Unstable” each time.
As to `CC(C)(C)c1cc(C(=O)Nc2ccncc2)n(Cc2ccccc2)n1`, the IC50 in data set [1] was 3.88 µM; in data set [8], 7.05 µM. Also, the solubility kinetic in [2] is above 100 µg/mL; in [7], 6.3 µg/mL (≈ 18.8 µM). For the same molecule, the chromatographic logD amounted to 4 in data set [3] and 2.6 in [4]. Moreover, the Stability result in data set [5], in data set [6] and in data set [9] was “Unstable” each time.
With `CC(C)(C)c1cc(C(=O)Nc2ccccn2)n(Cc2ccccc2)n1`, the values for the IC50 in [1] and in data set [8] were 10.5 µM and 10.2 µM, respectively. Also, the solubility kinetic came out at 25 µg/mL (≈ 74.8 µM) in [2] and 6.3 µg/mL (≈ 18.8 µM) in data set [7]. Also, the chromatographic logD in data set [3] and in [4] was 4.5 each time. The Stability result in [5], in data set [6] and in data set [9] was “Unstable” in each case.
Consider `CC(C)(C)c1cc(C(=O)Nc2ccccc2)n(Cc2ccccc2)n1`, for which the half-inhibitory concentration (IC50) in data set [1] is 7.92 µM; in data set [8], 11 µM. The solubility kinetic in data set [2] and in data set [7] was 1.6 µg/mL (≈ 4.8 µM) in each case. Further, the chromatographic logD in [3] and in data set [4] was 4.7 throughout. Besides, the Stability entry in [5], in data set [6] and in data set [9] was “Unstable” in each case.
Consider `Cc1csc(NC(=O)c2cc(C(C)(C)C)nn2Cc2ccccc2)n1`, for which the results for the IC50 in data set [1] and in data set [8] were 4.12 µM and 4.94 µM, respectively. Besides, the solubility kinetic in data set [2] and in data set [7] was below 1.6 µg/mL throughout. In addition, the chromatographic logD in data set [3] and in [4] was 4.7 throughout. In addition, the Stability result in data set [5], in data set [6] and in data set [9] was “Unstable” throughout.
Take `CC(C)(C)c1cc(C(=O)Nc2cccc(CN)c2)n(Cc2ccccc2)n1`: the IC50 in data set [1] is 2.15 µM; in data set [8], 1.47 µM. In addition, the solubility kinetic was above 100 µg/mL in data set [2] and 25 µg/mL (≈ 69 µM) in data set [7]. For the same molecule, the values for the chromatographic logD in data set [3] and in data set [4] were 2.9 and 2.2, respectively. Besides, the Stability entry in data set [5], in data set [6] and in data set [9] was “Stable” each time.
Regarding `Cn1nc(C(C)(C)C)cc1C(=O)Nc1nc(CN)cs1`, the IC50 in data set [1] is above 34.1 µM; in data set [8], 34.1 µM. The solubility kinetic is above 100 µg/mL in data set [2] and 50 µg/mL (≈ 170 µM) in data set [7]. Besides, the chromatographic logD came to 1.6 in data set [3] and 1.2 in data set [4].
Turning to `NCc1csc(NC(=O)c2ccn[nH]2)n1`, the IC50 in data set [1] and in data set [8] was above 44.8 µM throughout. Also, the solubility kinetic in data set [2] and in data set [7] was above 100 µg/mL each time. The chromatographic logD amounted to 0.1 in data set [3] and 0 in data set [4].
With `NCc1csc(NC(=O)c2cc3ccccc3o2)n1`, the IC50 in data set [1] was above 36.6 µM; in data set [8] it was 36.6 µM. In addition, the solubility kinetic was above 100 µg/mL in data set [2] and 50 µg/mL (≈ 183 µM) in data set [7]. Moreover, the chromatographic logD turned out to be 1.5 in data set [3] and 1.1 in data set [4].
As to `NCc1csc(NC(=O)c2cc3ccccc3n2Cc2ccccc2)n1`, the IC50 in data set [1] was found to be 10.3 µM; in data set [8], 6.98 µM. Further, the solubility kinetic was 25 µg/mL (≈ 69 µM) in [2] and 1.6 µg/mL (≈ 4.41 µM) in data set [7]. In addition, the chromatographic logD in [3] amounted to 3; in [4], 2.4.
As to `COc1ccc(C(=O)Nc2nc(CN)cs2)cc1`, the IC50 in data set [1] came out at 13.1 µM; in data set [8], 11.1 µM. The figures for the solubility kinetic in data set [2] and in data set [7] were 50 µg/mL (≈ 190 µM) and 25 µg/mL (≈ 94.9 µM), respectively. The chromatographic logD in [3] was found to be 1.2; in data set [4] it was 0.9.
Turning to `NCc1csc(NC(=O)c2cccnn2)n1`, the half-maximal inhibitory concentration (IC50) in [1] is above 42.5 µM; in [8] it was 42.5 µM. The solubility kinetic in data set [2] was above 100 µg/mL; in data set [7], 50 µg/mL (≈ 213 µM). The chromatographic logD in data set [3] is 0.2; in [4], 0.
`NCc1csc(NC(=O)c2ccon2)n1`: the IC50 in data set [1] and in data set [8] was above 44.6 µM throughout. The solubility kinetic in data set [2] and in [7] was 50 µg/mL (≈ 223 µM) throughout. The chromatographic logD in [3] was -0.1; in [4], 0.
On to `NCc1csc(NC(=O)c2cc3ccccc3[nH]2)n1`, for which the IC50 was determined as 30.4 µM in data set [1] and 22.2 µM in [8]. Further, the solubility kinetic in data set [2] was above 100 µg/mL; in [7], 25 µg/mL (≈ 91.8 µM). Also, the values for the chromatographic logD in [3] and in data set [4] were 1.4 and 1.1, respectively.
As to `NCc1csc(NC(=O)c2ccccc2)n1`, the half-inhibitory concentration (IC50) in data set [1] is above 42.9 µM; in data set [8] it was 42.9 µM. Also, the values for the solubility kinetic in [2] and in data set [7] were above 100 µg/mL and 25 µg/mL (≈ 107 µM), respectively. For the same molecule, the chromatographic logD in data set [3] was 1; in data set [4], 0.7.
For the molecule `NCc1csc(NC(=O)c2ccc(Cl)cc2)n1`, the IC50 in data set [1] is above 37.5 µM; in data set [8], 37.5 µM. In addition, the solubility kinetic in data set [2] is above 100 µg/mL; in [7], 25 µg/mL (≈ 93.4 µM). The chromatographic logD was 1.6 in data set [3] and 1.2 in data set [4].
Take `NCc1csc(NC(=O)c2ccccn2)n1`: the IC50 in data set [1] and in data set [8] was above 42.7 µM in each case. The solubility kinetic in [2] and in [7] was above 100 µg/mL each time. Also, the chromatographic logD in data set [3] was 0.7; in [4], 0.3.
Take `NCc1csc(NC(=O)c2ncccn2)n1`: the IC50 in data set [1] and in [8] was above 42.5 µM each time. Further, the solubility kinetic in data set [2] and in data set [7] was above 100 µg/mL each time. The figures for the chromatographic logD in data set [3] and in [4] were -0.1 and -0.2, respectively.
Take `NCc1csc(NC(=O)c2cnn[nH]2)n1`: the IC50 in [1] and in data set [8] was above 44.6 µM in each case. Besides, the solubility kinetic in [2] and in data set [7] was above 100 µg/mL each time. Besides, the chromatographic logD in [3] was -0.3; in data set [4], -0.2.
With `NCc1csc(NC(=O)c2cnnn2Cc2ccccc2)n1`, the IC50 in data set [1] and in [8] was above 3.18 µM throughout. The results for the solubility kinetic in data set [2] and in [7] were above 100 µg/mL and 50 µg/mL (≈ 159 µM), respectively. Besides, the chromatographic logD in [3] came out at 1.6; in [4] it was 1.3.
For `NCc1csc(NC(=O)c2cn(Cc3ccccc3)nn2)n1`, the IC50 in [1] and in data set [8] was above 3.18 µM throughout. The solubility kinetic in data set [2] is 50 µg/mL (≈ 159 µM); in data set [7] it was 25 µg/mL (≈ 79.5 µM). The chromatographic logD was determined as 1.4 in data set [3] and 1.1 in [4].
Consider `C[C@H]1[C@H](OC(=O)CCC(=O)O)O[C@@H]2O[C@@]3(C)CC[C@H]4[C@H](C)CC[C@@H]1[C@@]24OO3` [ARTESUNATE], for which the results for the IC50 in [1] and in data set [8] were 0.004 µM and 0.003 µM, respectively.
